Laboratory results reported in patent US20230022400A1, “IMMUNOMODULATORS” (Bristol-Myers Squibb Company, priority 2019, published 2023).
pIC50: −log10 of the molar value. Where a SMILES comes first, the peptide text is derived from it. Bridges are numbered along the chain shown (N, C = ends). [ ]: non-standard residue; d: D form. The star is where a group is joined. Trp(1-CH2CO2Me) = COC(=O)Cn1cc(C[C@H](N)C(=O)O)c2ccccc21; Trp(1-CH2COOH) = N[C@@H](Cc1cn(CC(=O)O)c2ccccc12)C(=O)O; X7 = Cc1ccc(-n2c3ccccc3c3c(*)nc(C)nc32)nc1; Hyp = O=C(O)[C@@H]1C[C@@H](O)CN1; X20 = Cc1ccc2[nH]c3c(*)ncnc3c2c1; X8 = Cn1cnc2c(Cl)nc3sc(*)nc3c21; X2 = CSc1nc(*)c2sc3ccccc3c2n1; NMeNle = CCCC[C@H](NC)C(=O)O; X4 = c1nc(*)c2c3c(sc2n1)CCC3; X17 = Clc1cc2nc(*)sc2cc1Cl; NMeA = CN[C@@H](C)C(=O)O; X14 = Clc1cccc2sc(*)nc12; Dab = NCC[C@H](N)C(=O)O; Dap = NC[C@H](N)C(=O)O; X9 = Fc1cccc2sc(*)nc12; X1 = c1ccc2sc(*)nc2c1; X15 = c1cnc(*)cn1

molecular target: T1, PD-1/PD-L1 interaction (PD-1-Ig / PD-L1-His) (Homo sapiens, UniProt Q9NZQ7); assay: PD-1/PD-L1 Homogenous Time-Resolved Fluorescence (HTRF) binding assay; conditions: PD-L1-His 10 nM final, PD-1-Ig 20 nM final; inhibitors pre-incubated with PD-L1-His for 15 m
T1 construct: TVMV protease site (linker) (C); made in house; host or cells: HEK293T cells
T1 sequence (Q9NZQ7 18-239): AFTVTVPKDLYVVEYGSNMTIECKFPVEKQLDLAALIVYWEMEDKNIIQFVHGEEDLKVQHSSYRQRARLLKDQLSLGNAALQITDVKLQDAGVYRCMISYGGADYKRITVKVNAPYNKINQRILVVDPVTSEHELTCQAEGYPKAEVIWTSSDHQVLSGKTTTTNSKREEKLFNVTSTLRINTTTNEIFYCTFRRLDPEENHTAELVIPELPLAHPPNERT
Description: The ability of the compounds of formula (I) to bind to PD-L1 was investigated using a PD-1/PD-L1 Homogenous Time-Resolved Fluorescence (HTRF) binding assay.
The interaction of PD-1 and PD-L1 can be assessed using soluble, purified preparations of the extracellular domains of the two proteins. The PD-1 and PD-L1 protein extracellular domains were expressed as fusion proteins with detection tags, for PD-1, the tag was the Fc portion of Immunoglobulin (PD-1-Ig) and for PD-L1 it was the 6 histidine motif (PD-L1-His). All binding studies were performed in an HTRF assay buffer consisting of dPBS supplemented with 0.1% […] bovine serum albumin and 0.05% (v/v) Tween-20. For the h/PD-L1-His binding assay, inhibitors were pre-incubated with PD-L1-His (10 nM final) for 15 m in 4 μl of assay buffer, followed by addition of PD-1-Ig (20 nM final) in 1 μl of assay buffer and further incubation for 15 m. HTRF detection was achieved using europium crypate-labeled anti-Ig (1 nM final) and allophycocyanin (APC) labeled anti-His (20 nM final). Antibodies were diluted in HTRF detection buffer and 5 μl was dispensed on top of the binding reaction. The reaction mixture was allowed to equilibrate for 30 minutes and the resulting signal (665 nm/620 nm ratio) was obtained using an EnVision fluorometer. Additional binding assays were established between the human proteins PD-1-Ig/PD-L2-His (20 & 5 nM, respectively) and CD80-His/PD-L1-Ig (100 & 10 nM, respectively).
Recombinant Proteins: Human PD-1 (25-167) with a C-terminal human Fc domain of immunoglobulin G (Ig) epitope tag [hPD-1 (25-167)-3S-IG] and human PD-L1 (18-239) with a C-terminal His epitope tag [hPD-L1(18-239)-TVMV-His] were expressed in HEK293T cells and purified sequentially by ProteinA affinity chromatography and size exclusion chromatography. Human PD-L2-His and CD80-His was obtained through commercial sources.
Table 1 lists the IC50 values for representative examples of this disclosure measured in the PD-1/PD-L1 Homogenous Time-Resolved Fluorescence (HTRF) binding assay.

Compound	pIC50
CCCC[C@H]1C(=O)N(C)[C@@H](CCCC)C(=O)N[C@@H](CC(C)C)C(=O)N[C@H](C(=O)NCC(N)=O)CSCC(=O)N[C@@H](Cc2ccc(O)cc2)C(=O)N(C)[C@@H](C)C(=O)N[C@@H](CC(N)=O)C(=O)N2CCC[C@H]2C(=O)N[C@@H](CNc2nc3cc(Cl)c(Cl)cc3s2)C(=O)N[C@@H](CC(C)C)C(=O)N2C[C@H](O)C[C@H]2C(=O)N[C@@H](Cc2c[nH]c3ccccc23)C(=O)N[C@@H](CCNc2nc3cc(Cl)c(Cl)cc3s2)C(=O)N[C@@H](Cc2cn(CC(=O)O)c3ccccc23)C(=O)N1C [Compound 11005] ({CH2CO}-Y[NMeA]NP[Dap](X17)L[Hyp]W[Dab](X17)[Trp(1-CH2COOH)][NMeNle][NMeNle]LCG-NH2; thioether N-14)	7.05
CCCC[C@H]1C(=O)N(C)[C@@H](CCCC)C(=O)N[C@@H](CC(C)C)C(=O)N[C@H](C(=O)NCC(N)=O)CSCC(=O)N[C@@H](Cc2ccc(O)cc2)C(=O)N(C)[C@@H](C)C(=O)N[C@@H](CC(N)=O)C(=O)N2CCC[C@H]2C(=O)N[C@@H](CNc2nc3c(F)cccc3s2)C(=O)N[C@@H](CC(C)C)C(=O)N2C[C@H](O)C[C@H]2C(=O)N[C@@H](Cc2c[nH]c3ccccc23)C(=O)N[C@@H](CCN)C(=O)N[C@@H](Cc2cn(CC(=O)O)c3ccccc23)C(=O)N1C [Compound 11008] ({CH2CO}-Y[NMeA]NP[Dap](X9)L[Hyp]W[Dab][Trp(1-CH2COOH)][NMeNle][NMeNle]LCG-NH2; thioether N-14)	8.28
CCCC[C@H]1C(=O)N(C)[C@@H](CCCC)C(=O)N[C@@H](CC(C)C)C(=O)N[C@H](C(=O)NCC(N)=O)CSCC(=O)N[C@@H](Cc2ccc(O)cc2)C(=O)N(C)[C@@H](C)C(=O)N[C@@H](CC(N)=O)C(=O)N2CCC[C@H]2C(=O)N[C@@H](CNc2nc3c(nc(Cl)c4ncn(C)c43)s2)C(=O)N[C@@H](CC(C)C)C(=O)N2C[C@H](O)C[C@H]2C(=O)N[C@@H](Cc2c[nH]c3ccccc23)C(=O)N[C@@H](CCN)C(=O)N[C@@H](Cc2cn(CC(=O)O)c3ccccc23)C(=O)N1C [Compound 21001] ({CH2CO}-Y[NMeA]NP[Dap](X8)L[Hyp]W[Dab][Trp(1-CH2COOH)][NMeNle][NMeNle]LCG-NH2; thioether N-14)	8.62
CCCC[C@H]1C(=O)N(C)[C@@H](CCCC)C(=O)N[C@@H](CC(C)C)C(=O)N[C@H](C(=O)NCC(N)=O)CSCC(=O)N[C@@H](Cc2ccc(O)cc2)C(=O)N(C)[C@@H](C)C(=O)N[C@@H](CC(N)=O)C(=O)N2CCC[C@H]2C(=O)N[C@@H](CNc2ncnc3sc4c(c23)CCC4)C(=O)N[C@@H](CC(C)C)C(=O)N2C[C@H](O)C[C@H]2C(=O)N[C@@H](Cc2c[nH]c3ccccc23)C(=O)N[C@@H](CCNc2ncnc3sc4c(c23)CCC4)C(=O)N[C@@H](Cc2cn(CC(=O)O)c3ccccc23)C(=O)N1C [Compound 21012] ({CH2CO}-Y[NMeA]NP[Dap](X4)L[Hyp]W[Dab](X4)[Trp(1-CH2COOH)][NMeNle][NMeNle]LCG-NH2; thioether N-14)	7.85
CCCC[C@H]1C(=O)N(C)[C@@H](CCCC)C(=O)N[C@@H](CC(C)C)C(=O)N[C@H](C(=O)NCC(N)=O)CSCC(=O)N[C@@H](Cc2ccc(O)cc2)C(=O)N(C)[C@@H](C)C(=O)N[C@@H](CC(N)=O)C(=O)N2CCC[C@H]2C(=O)N[C@@H](CNc2ncnc3c2[nH]c2ccc(C)cc23)C(=O)N[C@@H](CC(C)C)C(=O)N2C[C@H](O)C[C@H]2C(=O)N[C@@H](Cc2c[nH]c3ccccc23)C(=O)N[C@@H](CCN)C(=O)N[C@@H](Cc2cn(CC(=O)O)c3ccccc23)C(=O)N1C [Compound 21003] ({CH2CO}-Y[NMeA]NP[Dap](X20)L[Hyp]W[Dab][Trp(1-CH2COOH)][NMeNle][NMeNle]LCG-NH2; thioether N-14)	7.89
CCCC[C@H]1C(=O)N(C)[C@@H](CCCC)C(=O)N[C@@H](CC(C)C)C(=O)N[C@H](C(=O)NCC(N)=O)CSCC(=O)N[C@@H](Cc2ccc(O)cc2)C(=O)N(C)[C@@H](C)C(=O)N[C@@H](CC(N)=O)C(=O)N2CCC[C@H]2C(=O)N[C@@H](CNc2nc(SC)nc3c2sc2ccccc23)C(=O)N[C@@H](CC(C)C)C(=O)N2C[C@H](O)C[C@H]2C(=O)N[C@@H](Cc2c[nH]c3ccccc23)C(=O)N[C@@H](CCN)C(=O)N[C@@H](Cc2cn(CC(=O)O)c3ccccc23)C(=O)N1C [Compound 21008] ({CH2CO}-Y[NMeA]NP[Dap](X2)L[Hyp]W[Dab][Trp(1-CH2COOH)][NMeNle][NMeNle]LCG-NH2; thioether N-14)	8.19
CCCC[C@H]1C(=O)N(C)[C@@H](CCCC)C(=O)N[C@@H](CC(C)C)C(=O)N[C@H](C(=O)NCC(N)=O)CSCC(=O)N[C@@H](Cc2ccc(O)cc2)C(=O)N(C)[C@@H](C)C(=O)N[C@@H](CC(N)=O)C(=O)N2CCC[C@H]2C(=O)N[C@@H](CNc2nc(SC)nc3c2sc2ccccc23)C(=O)N[C@@H](CC(C)C)C(=O)N2C[C@H](O)C[C@H]2C(=O)N[C@@H](Cc2c[nH]c3ccccc23)C(=O)N[C@@H](CCNc2nc(SC)nc3c2sc2ccccc23)C(=O)N[C@@H](Cc2cn(CC(=O)O)c3ccccc23)C(=O)N1C [Compound 21009] ({CH2CO}-Y[NMeA]NP[Dap](X2)L[Hyp]W[Dab](X2)[Trp(1-CH2COOH)][NMeNle][NMeNle]LCG-NH2; thioether N-14)	6.87
CCCC[C@H]1C(=O)N(C)[C@@H](CCCC)C(=O)N[C@@H](CC(C)C)C(=O)N[C@H](C(=O)NCC(N)=O)CSCC(=O)N[C@@H](Cc2ccc(O)cc2)C(=O)N(C)[C@@H](C)C(=O)N[C@@H](CC(N)=O)C(=O)N2CCC[C@H]2C(=O)N[C@@H](CNc2cnccn2)C(=O)N[C@@H](CC(C)C)C(=O)N2C[C@H](O)C[C@H]2C(=O)N[C@@H](Cc2c[nH]c3ccccc23)C(=O)N[C@@H](CCN)C(=O)N[C@@H](Cc2cn(CC(=O)O)c3ccccc23)C(=O)N1C [Compound 1005] ({CH2CO}-Y[NMeA]NP[Dap](X15)L[Hyp]W[Dab][Trp(1-CH2COOH)][NMeNle][NMeNle]LCG-NH2; thioether N-14)	7.96
CCCC[C@H]1C(=O)N(C)[C@@H](CCCC)C(=O)N[C@@H](CC(C)C)C(=O)N[C@H](C(=O)NCC(N)=O)CSCC(=O)N[C@@H](Cc2ccc(O)cc2)C(=O)N(C)[C@@H](C)C(=O)N[C@@H](CC(N)=O)C(=O)N2CCC[C@H]2C(=O)N[C@@H](CNc2cnccn2)C(=O)N[C@@H](CC(C)C)C(=O)N2C[C@H](O)C[C@H]2C(=O)N[C@@H](Cc2c[nH]c3ccccc23)C(=O)N[C@@H](CCNc2cnccn2)C(=O)N[C@@H](Cc2cn(CC(=O)O)c3ccccc23)C(=O)N1C [Compound 1004] ({CH2CO}-Y[NMeA]NP[Dap](X15)L[Hyp]W[Dab](X15)[Trp(1-CH2COOH)][NMeNle][NMeNle]LCG-NH2; thioether N-14)	8.29
CCCC[C@H]1C(=O)N(C)[C@@H](CCCC)C(=O)N[C@@H](CC(C)C)C(=O)N[C@H](C(=O)NCC(N)=O)CSCC(=O)N[C@@H](Cc2ccc(O)cc2)C(=O)N(C)[C@@H](C)C(=O)N[C@@H](CC(N)=O)C(=O)N2CCC[C@H]2C(=O)N[C@@H](CNc2nc3c(Cl)cccc3s2)C(=O)N[C@@H](CC(C)C)C(=O)N2C[C@H](O)C[C@H]2C(=O)N[C@@H](Cc2c[nH]c3ccccc23)C(=O)N[C@@H](CCNc2nc3c(Cl)cccc3s2)C(=O)N[C@@H](Cc2cn(CC(=O)O)c3ccccc23)C(=O)N1C [Compound 11006] ({CH2CO}-Y[NMeA]NP[Dap](X14)L[Hyp]W[Dab](X14)[Trp(1-CH2COOH)][NMeNle][NMeNle]LCG-NH2; thioether N-14)	8.10
CCCC[C@H]1C(=O)N(C)[C@@H](CCCC)C(=O)N[C@@H](CC(C)C)C(=O)N[C@H](C(=O)NCC(N)=O)CSCC(=O)N[C@@H](Cc2ccc(O)cc2)C(=O)N(C)[C@@H](C)C(=O)N[C@@H](CC(N)=O)C(=O)N2CCC[C@H]2C(=O)N[C@@H](CNc2nc3ccccc3s2)C(=O)N[C@@H](CC(C)C)C(=O)N2C[C@H](O)C[C@H]2C(=O)N[C@@H](Cc2c[nH]c3ccccc23)C(=O)N[C@@H](CCNc2nc3ccccc3s2)C(=O)N[C@@H](Cc2cn(CC(=O)OC)c3ccccc23)C(=O)N1C [Compound 12001] ({CH2CO}-Y[NMeA]NP[Dap](X1)L[Hyp]W[Dab](X1)[Trp(1-CH2CO2Me)][NMeNle][NMeNle]LCG-NH2; thioether N-14)	6.86
CCCC[C@H]1C(=O)N(C)[C@@H](CCCC)C(=O)N[C@@H](CC(C)C)C(=O)N[C@H](C(=O)NCC(N)=O)CSCC(=O)N[C@@H](Cc2ccc(O)cc2)C(=O)N(C)[C@@H](C)C(=O)N[C@@H](CC(N)=O)C(=O)N2CCC[C@H]2C(=O)N[C@@H](CNc2nc(C)nc3c2c2ccccc2n3-c2ccc(C)cn2)C(=O)N[C@@H](CC(C)C)C(=O)N2C[C@H](O)C[C@H]2C(=O)N[C@@H](Cc2c[nH]c3ccccc23)C(=O)N[C@@H](CCN)C(=O)N[C@@H](Cc2cn(CC(=O)O)c3ccccc23)C(=O)N1C [Compound 21005] ({CH2CO}-Y[NMeA]NP[Dap](X7)L[Hyp]W[Dab][Trp(1-CH2COOH)][NMeNle][NMeNle]LCG-NH2; thioether N-14)	7.60
